Values belong to the molecule of their own block, whether it stands above or below them.
Tested on: 282377-053-R-J1-PDC complex spheroid viability
Experiment: Anticancer human tumor 282377-053-R-J1-PDC patient-derived colon adenocarcinoma cell line growth inhibition [RAS]
Conditions: for IC50: curve of first compound; for viability, T/C: stronger effect = lower value
From the text: RAS pathway inhibitors in Combinations in Complex Spheroids
A high-throughput screen of multi-cell type tumor spheroids was designed to identify active combinations of RAS pathway inhibitors and targeted small molecules. Complex spheroids include a stromal component modeled by human endothelial cells (HUVEC) and fibroblasts modeled by human mesenchymal stem cells (MSCs). The concentration ranges selected for each drug and investigational agent were based upon clinically achievable concentrations if the clinical Cmax of the agent was known.
Compounds. The drugs and investigational agents: abemaciclib (NSC768073), cobimetinib (NSC768068), divarasib (GDC6063, NSC841802), docetaxel (NSC628503), GDC-1971 (RLY-1971, NSC841576), gemcitabine (NSC613327), inavolisib (NSC800729), ipatasertib (NSC767898), KB-0742 (NSC834161), MRTX-1133 (NSC836407), osimertinib (NSC779217), RMC-4630 (NSC839698), RMC-6236 (NSC851965), RMC-6291 (NSC852671), Ro-3306 (NSC812927), sapanisertib (NSC764658), SN-38 (NSC673596), staurosporine (NSC755774), SY5609 (NSC837396), and tovorafenib (DAY101, NSC766906), were obtained from the National Cancer Institute (NCI) Developmental Therapeutics Program Chemical Repository. The FDA-approved anticancer drug set is available from the NCI Developmental Therapeutics Program. […] The stock solutions were prepared in dimethyl sulfoxide (DMSO, Sigma-Aldrich, St. Louis, MO, cat. D2650) at 800-fold the tested concentration and stored at -70 degrees C prior to their use. All drugs and investigational agents were tested over a range starting from a high concentration at or near the clinical Cmax and decreasing in half-log increments. If the clinical Cmax for an agent had not been determined, the highest concentration tested was 10 microM.
Cell Culture. All cells were maintained in an incubator at 37 degrees C and 5% CO2 with 95% humidity. The PDC lines were cultured according to standard operating procedures established by the NCI PDMR. All PDCs were thawed and cultured in Matrigel-coated flasks prepared with a working solution of 1X Ham's F-12 nutrient mix, without supplementation (Invitrogen, Waltham, MA, cat. 11765054), 100 U/mL penicillin-streptomycin (Invitrogen, cat. 15140122), and 2.5% Matrigel (Corning Inc., Corning, NY, cat. 354248) for the first three passages. The 362531-283-R-J2-PDC and 782815-120-R-J1-PDC lines were cultured in 6C/Colon 1B media, which includes advanced DMEM/F-12 (Thermo Fisher Scientific, cat. 12634028), 10 mM HEPES (Thermo Fisher Scientific, cat. 15630080), 1X GlutaMAX supplement (Thermo Fisher Scientific, cat. 35050061), 0.1 mg/mL primocin (InvivoGen, San Diego, CA, cat. ant-pm-2), 10% defined fetal bovine serum, heat inactivated (HyClone Laboratories Inc., Logan, UT, cat. SH30070.03HI), 50% L-WRN conditioned media (ATCC, cat. CRL-3276), 1.25 mM N-Acetyl-L-cysteine (Sigma-Aldrich, cat. A9165), 10 mM nicotinamide (Sigma-Aldrich, cat. N0636), 1X B-27 supplement (Thermo Fisher Scientific, cat. 17504044), 1X N-2 supplement (Thermo Fisher Scientific, cat. 17502048), 50 ng/mL human EGF (Thermo Fisher Scientific, cat. PHG0311), and 10 microM Y-27632 dihydrochloride (Tocris Bioscience, cat. 1254). The K12877-001-R-J1-PDC line was cultured in 6I media, which includes all 6C/Colon 1B media plus 10 ng/mL human FGF-10 (PeproTech, cat. 100-26), 1 ng/mL human FGF-2 (PeproTech, cat. 100-18B), 1 µM prostaglandin E2 (Tocris Bioscience, cat. 2296), […] hydrocortisone (Sigma-Aldrich, cat. H4001), and […] bovine insulin (Sigma-Aldrich, cat. I6634). The K86415-001-R-J1-PDC line was cultured in 6D media, which includes all 6C/Colon 1B media components minus the L-WRN conditioned media. The 485176-168-R4-J1-PDC was cultured in PANC media, which includes all 6C/Colon 1B media plus 100 ng/mL human FGF-10 (PeproTech, cat. 100-26), 500 nM SB-431542 (Selleckchem, cat. S1067), and 10 nM gastrin (Tocris Bioscience, cat. 3006). […]

[1] = second compound 0.0316 µM, first compound 0.0316 µM
[2] = second compound 0.0316 µM, first compound 0.1 µM
[3] = second compound 0.0316 µM, first compound 0.316 µM
[4] = second compound 0.0316 µM, first compound 1 µM
[5] = second compound 0.0316 µM, first compound 3.16 µM
[6] = second compound 0.0316 µM, first compound 10 µM
[7] = second compound 0.1 µM, first compound 0.0316 µM
[8] = second compound 0.1 µM, first compound 0.1 µM
[9] = second compound 0.1 µM, first compound 0.316 µM
[10] = second compound 0.1 µM, first compound 1 µM
[11] = second compound 0.1 µM, first compound 3.16 µM
[12] = second compound 0.1 µM, first compound 10 µM
[13] = second compound 0.316 µM, first compound 0.0316 µM
[14] = second compound 0.316 µM, first compound 0.1 µM
[15] = second compound 0.316 µM, first compound 0.316 µM
[16] = second compound 0.316 µM, first compound 1 µM
[17] = second compound 0.316 µM, first compound 3.16 µM
[18] = second compound 0.316 µM, first compound 10 µM
[19] = second compound 1 µM, first compound 0.0316 µM
[20] = second compound 1 µM, first compound 0.1 µM
[21] = second compound 1 µM, first compound 0.316 µM
[22] = second compound 1 µM, first compound 1 µM
[23] = second compound 1 µM, first compound 3.16 µM
[24] = second compound 1 µM, first compound 10 µM
[25] = second compound 3.16 µM, first compound 0.0316 µM
[26] = second compound 3.16 µM, first compound 0.1 µM
[27] = second compound 3.16 µM, first compound 0.316 µM
[28] = second compound 3.16 µM, first compound 1 µM
[29] = second compound 3.16 µM, first compound 3.16 µM
[30] = second compound 3.16 µM, first compound 10 µM
[31] = second compound 10 µM, first compound 0.0316 µM
[32] = second compound 10 µM, first compound 0.1 µM
[33] = second compound 10 µM, first compound 0.316 µM
[34] = second compound 10 µM, first compound 1 µM
[35] = second compound 10 µM, first compound 3.16 µM
[36] = second compound 10 µM, first compound 10 µM
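Also: spheroids exposed to agents for seven days before readout.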
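For viability, T/C in this document: luminescence viability as percent of DMSO vehicle control wells.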

- IC50 (second compound 0.0316 µM): 1.97 µM
- IC50 (second compound 0.1 µM): 2.02 µM
- IC50 (second compound 0.316 µM): 1.86 µM
- IC50 (second compound 1 µM): 1.7 µM
- IC50 (second compound 3.16 µM): 1.91 µM
- IC50 (second compound 10 µM): 1.76 µM
SMILES: CCC(CC)c1cc(NC2CCC(N)C2)n2nccc2n1 (stereo unspecified) + C#Cc1c(F)ccc2cc(O)cc(-c3ncc4c(N5CC6CCC(C5)N6)nc(OCC56CCCN5CC(F)C6)nc4c3F)c12
- viability, T/C [1]: 113%
- viability, T/C [2]: 120%
- viability, T/C [3]: 89.4%
- viability, T/C [4]: 111%
- viability, T/C [5]: 9.2%
- viability, T/C [6]: 2.06%
- viability, T/C [7]: 113%
- viability, T/C [8]: 123%
- viability, T/C [9]: 94.9%
- viability, T/C [10]: 118%
- viability, T/C [11]: 10.2%
- viability, T/C [12]: 2.09%
- viability, T/C [13]: 107%
- viability, T/C [14]: 102%
- viability, T/C [15]: 81.3%
- viability, T/C [16]: 96.9%
- viability, T/C [17]: 9.63%
- viability, T/C [18]: 2.11%
- viability, T/C [19]: 103%
- viability, T/C [20]: 95.4%
- viability, T/C [21]: 86.8%
- viability, T/C [22]: 84.6%
- viability, T/C [23]: 9.29%
- viability, T/C [24]: 2.23%
- viability, T/C [25]: 99.5%
- viability, T/C [26]: 112%
- viability, T/C [27]: 104%
- viability, T/C [28]: 100%
- viability, T/C [29]: 10.8%
- viability, T/C [30]: 2.69%
- viability, T/C [31]: 101%
- viability, T/C [32]: 95.9%
- viability, T/C [33]: 96.3%
- viability, T/C [34]: 89.4%
- viability, T/C [35]: 9.18%
- viability, T/C [36]: 3.74%

- IC50 (second compound 0.0316 µM): > 10 µM
- IC50 (second compound 0.1 µM): > 10 µM
- IC50 (second compound 0.316 µM): > 10 µM
- IC50 (second compound 1 µM): > 10 µM
- IC50 (second compound 3.16 µM): > 10 µM
- IC50 (second compound 10 µM): > 10 µM
SMILES: Cc1nc(N2CCC3(CC2)COC(C)C3N)c(CO)nc1Sc1ccnc(N)c1Cl (stereo unspecified) + C#Cc1c(F)ccc2cc(O)cc(-c3ncc4c(N5CC6CCC(C5)N6)nc(OCC56CCCN5CC(F)C6)nc4c3F)c12
- viability, T/C [1]: 101%
- viability, T/C [2]: 120%
- viability, T/C [3]: 114%
- viability, T/C [4]: 113%
- viability, T/C [5]: 95.9%
- viability, T/C [6]: 87.3%
- viability, T/C [7]: 109%
- viability, T/C [8]: 107%
- viability, T/C [9]: 88.7%
- viability, T/C [10]: 89.8%
- viability, T/C [11]: 99.5%
- viability, T/C [12]: 89.4%
- viability, T/C [13]: 107%
- viability, T/C [14]: 114%
- viability, T/C [15]: 95%
- viability, T/C [16]: 100%
- viability, T/C [17]: 114%
- viability, T/C [18]: 101%
- viability, T/C [19]: 116%
- viability, T/C [20]: 110%
- viability, T/C [21]: 110%
- viability, T/C [22]: 86%
- viability, T/C [23]: 98%
- viability, T/C [24]: 85%
- viability, T/C [25]: 99.3%
- viability, T/C [26]: 103%
- viability, T/C [27]: 89.8%
- viability, T/C [28]: 111%
- viability, T/C [29]: 98.2%
- viability, T/C [30]: 120%
- viability, T/C [31]: 110%
- viability, T/C [32]: 116%
- viability, T/C [33]: 114%
- viability, T/C [34]: 98.5%
- viability, T/C [35]: 85.8%
- viability, T/C [36]: 131%

- IC50 (second compound 0.0316 µM): > 10 µM
- IC50 (second compound 0.1 µM): > 10 µM
- IC50 (second compound 0.316 µM): > 10 µM
- IC50 (second compound 1 µM): > 10 µM
- IC50 (second compound 3.16 µM): > 10 µM
- IC50 (second compound 10 µM): > 10 µM
SMILES: NC1c2ccccc2OC12CCN(c1cnc3c(N4CCCc5ncccc54)n[nH]c3n1)CC2 (stereo unspecified) + C#Cc1c(F)ccc2cc(O)cc(-c3ncc4c(N5CC6CCC(C5)N6)nc(OCC56CCCN5CC(F)C6)nc4c3F)c12
- viability, T/C [1]: 92.2%
- viability, T/C [2]: 91.7%
- viability, T/C [3]: 111%
- viability, T/C [4]: 104%
- viability, T/C [5]: 88.3%
- viability, T/C [6]: 67.5%
- viability, T/C [7]: 90.7%
- viability, T/C [8]: 85.5%
- viability, T/C [9]: 99.2%
- viability, T/C [10]: 71.9%
- viability, T/C [11]: 110%
- viability, T/C [12]: 73%
- viability, T/C [13]: 105%
- viability, T/C [14]: 87.4%
- viability, T/C [15]: 78.4%
- viability, T/C [16]: 95.6%
- viability, T/C [17]: 94.8%
- viability, T/C [18]: 78.7%
- viability, T/C [19]: 83%
- viability, T/C [20]: 88.1%
- viability, T/C [21]: 106%
- viability, T/C [22]: 92.5%
- viability, T/C [23]: 85.1%
- viability, T/C [24]: 83%
- viability, T/C [25]: 90.4%
- viability, T/C [26]: 96%
- viability, T/C [27]: 99.6%
- viability, T/C [28]: 86.5%
- viability, T/C [29]: 90.4%
- viability, T/C [30]: 77.1%
- viability, T/C [31]: 115%
- viability, T/C [32]: 105%
- viability, T/C [33]: 108%
- viability, T/C [34]: 84.7%
- viability, T/C [35]: 109%
- viability, T/C [36]: 81.6%
